# Assays:
# [1] = system: human platelet rich plasma (PRP); assay: ADP induced platelet aggregation assay; conditions: Homo sapiens, Platelet, 5 min, read-out: PA IC50 (μM) @ 10 μM ADP, human PRP, 10 μM ADP, AUC at 5 minute
# [2] = target: cloned human P2Y1 receptors (Homo sapiens (Human), UniProt P47900); assay: Binding Assay A - membrane binding assay, [33P] 2MeS-ADP (WGA FlashPlate); conditions: values marked * in Table 1; 0.5 nM [33P] 2MeS-ADP, Cheng-Prusoff; read-out: P2Y1 Ki (nM) using binding assay A
# Description: A membrane binding assay was used to identify inhibitors of [^33P] […] The cDNA clone for human P2Y1 was obtained from Incyte Pharmaceuticals and its sequence confirmed by established techniques (for a compendium of techniques used see Ausubel, F. et al., Current Protocols in Molecular Biology, John Wiley and Sons, NY, NY (1995)). The essential coding sequences were subcloned into pCDNA 3.1 (Invitrogen) to produce a P2Y1 expression construct. This construct was then transfected into the human embryonic kidney cell line HEK-293 and stable transfectants selected in GENETICIN® (G418 sulfate; Life Technologies). […] Membranes were prepared by growing HEK293 #49 in 150 mm dishes in DMEM/10% FBS in the presence of 1 mg/ml G418 until cells were 80-90% confluent. Plates were then washed with cold (4° C.) D-PBS twice and cells harvested by scraping into 10 mL D-PBS. Cells were pelleted by centrifugation (1,000 g, 10 min, 4° C.) and the resulting pellet resuspended in Lysis Buffer (10 mM Tris (7.4), 5 mM MgCl2 containing Complete protease inhibitor cocktail (Roche Cat #1873580) as recommended by the manufacturer). The suspension was then homogenized in a Dounce homogenizer (10-15 strokes; B pestle, on ice) and the homogenate spun at 1,000 g, 4° C., 5 min to pellet large debris. The supernatant was centrifuged at 150,000 g, 4° C., for 1 hour and the resulting membrane pellet resuspended in 0.5-1 mL of Buffer B (15 mM HEPES (7.4), 145 mM NaCl, 0.1 mM MgCl2, 5 mM EDTA, 5 mM KCl) and stored at −70° C. until used.
# Binding reactions were performed in WGA FLASHPLATE®s (PerkinElmer Life Sciences, Cat # SMP105A) in a volume of 200 μL containing ˜45 fmol of P2Y1 receptor (5 μg of total protein), 0.5 nM [^33P] […] Reactions were allowed to proceed to completion at room temperature for 1 hour and then the aqueous solution aspirated. Plates were sealed and the residual [^33P] bound to the plate determined by scintillation counting.
# cloned human P2Y1 receptors, sequence (P47900 whole entry): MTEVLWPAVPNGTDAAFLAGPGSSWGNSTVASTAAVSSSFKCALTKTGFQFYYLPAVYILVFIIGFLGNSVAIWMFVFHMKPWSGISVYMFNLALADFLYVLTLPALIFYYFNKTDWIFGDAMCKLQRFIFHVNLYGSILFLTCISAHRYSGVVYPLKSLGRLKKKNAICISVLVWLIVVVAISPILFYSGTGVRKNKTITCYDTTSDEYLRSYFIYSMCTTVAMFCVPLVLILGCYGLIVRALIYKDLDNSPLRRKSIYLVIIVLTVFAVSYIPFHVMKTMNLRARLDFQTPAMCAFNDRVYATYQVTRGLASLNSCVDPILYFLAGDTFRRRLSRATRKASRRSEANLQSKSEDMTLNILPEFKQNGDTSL
SMILES,IC50 [1] [µM],Ki [2] [nM]
"CC1(C)CN(c2ccccc2NC(=O)Nc2nc3ccc(F)cc3s2)c2c(O)ccc(-c3nc4ccc(F)cc4s3)c21 [Example 175, 1-(6-Fluorobenzo[d]thiazol-2-yl)-3-(2-(4-(6-fluorobenzo[d]thiazol-2-yl)-7-hydroxy-3,3-dimethylindolin-1-yl)phenyl)urea]",0.35,17.6
"CC1(C)CN(c2ccccc2NC(=O)Nc2nc3ccc(Cl)nc3s2)c2c(O)ccc(-c3nc4ccc(F)cc4s3)c21 [Example 176, 1-(5-Chlorothiazolo[5,4-b]pyridin-2-yl)-3-(2-(4-(6-fluorobenzo[d]thiazol-2-yl)-7-hydroxy-3,3-dimethylindolin-1-yl)phenyl)urea]",0.35,13
"CC1(C)CN(c2ccccc2NC(=O)Nc2csc(C(F)(F)F)n2)c2c(O)cc(F)c(-c3ccc(C(F)(F)F)cc3)c21 [Example 217, 1-(2-(5-Fluoro-7-hydroxy-3,3-dimethyl-4-(4-(trifluoromethyl)phenyl)indolin-1-yl)phenyl)-3-(2-(trifluoromethyl)thiazol-4-yl)urea]",0.16,8
"CC1(C)CN(c2ccccc2NC(=O)Nc2csc(C(F)(F)F)n2)c2c(O)cc(F)c(-c3ccc(Cl)cc3)c21 [Example 218, 1-(2-(4-(4-Chlorophenyl)-5-fluoro-7-hydroxy-3,3-dimethylindolin-1-yl)phenyl)-3-(2-(trifluoromethyl)thiazol-4-yl)urea]",0.37,9.3

# — patent US9540323B2 (BRISTOL-MYERS SQUIBB COMPANY, priority 2012, dated 2017)
